{"source": "ChEMBL document CHEMBL4689842", "about": "“EUbOPEN Chemogenomics Library wave 1” (2021)", "tested_on": "Fibroblast", "test": "Incucyte cell viability with human fibroblast; further: filed as whole numbers so only -1 and 0 and 1 occur", "type": "toxicity, cell-based", "conditions": "10 µM, compound concentration 10 uM", "data": [{"smiles": "CCOc1cc2ncc(C#N)c(Nc3ccc(OCc4ccccn4)c(Cl)c3)c2cc1NC(=O)/C=C/CN(C)C", "note": "[NERATINIB]", "values": [{"measurement": "Growth Rate", "setting": "0 h, replicate number 1, timepoint 0 hours", "value": 0}, {"measurement": "Growth Rate", "setting": "12 h, replicate number 1, timepoint 12 hours", "value": 1}, {"measurement": "Growth Rate", "setting": "18 h, replicate number 1, timepoint 18 hours", "value": 0}, {"measurement": "Growth Rate", "setting": "24 h, replicate number 1, timepoint 24 hours", "value": 0}, {"measurement": "Growth Rate", "setting": "24 h, replicate number 2, timepoint 24 hours", "value": 1}]}]}
